From patent US6534523B1, “Hepatitis C inhibitor tri-peptides” (Boehringer Ingelheim (Canada) Ltd., priority 1998, dated 2003)
pIC50: −log10 of the molar value.

target: HCV NS3 protease (UniProt P26663); format: biochemical, HCV genotype 1b; set-up: rows headed: IC50 (μM); IC50 (μM); settings: Table 8
Sequence (P26663 1027-1206, other chains not shown): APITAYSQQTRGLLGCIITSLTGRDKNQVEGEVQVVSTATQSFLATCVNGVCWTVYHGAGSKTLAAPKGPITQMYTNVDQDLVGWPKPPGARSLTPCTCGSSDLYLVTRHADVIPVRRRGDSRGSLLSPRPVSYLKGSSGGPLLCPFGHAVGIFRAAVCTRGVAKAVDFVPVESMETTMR

| SMILES | pIC50 |
| --- | --- |
| C=CC1CC1(NC(=O)C1CC(Oc2cc(-c3ccccc3)nc3cc(OC)ccc23)CN1C(=O)C(NCc1ccccc1)C(C)C)C(=O)O (stereo not shown) [compound 826] | 6.11 |
| C=CC1CC1(NC(=O)C1CC(Oc2cc(-c3ccccc3)nc3cc(OC)ccc23)CN1C(=O)C(NC(=O)NN(C)C)C(C)(C)C)C(=O)O (stereo not shown) [compound 827] | 6.57 |
| C=CC1CC1(NC(=O)C1CC(Oc2cc(-c3ccccc3)nc3cc(OC)ccc23)CN1C(=O)C(Nc1cccc(C(C)=O)c1)C(C)C)C(=O)O (stereo not shown) [compound 828] | 7.00 |
| C=CC1CC1(NC(=O)C1CC(Oc2cc(-c3ccccc3)nc3cc(OC)ccc23)CN1C(=O)C(NC(=O)Nc1c(C)cccc1C)C(C)(C)C)C(=O)O (stereo not shown) [compound 829] | 7.24 |
| C=CC1CC1(NC(=O)C1CC(Oc2cc(-c3ccccc3)nc3cc(OC)ccc23)CN1C(=O)C(NC(=O)OC)C(C)(C)C)C(=O)O (stereo not shown) [compound 830] | 6.95 |
| C=CC1CC1(NC(=O)C1CC(Oc2cc(-c3ccccc3)nc3cc(OC)ccc23)CN1C(=O)C(NC(=O)NC(C)C(N)=O)C(C)(C)C)C(=O)O (stereo not shown) [compound 831] | 7.82 |
| C=CC1CC1(NC(=O)C1CC(Oc2cc(-c3ccccc3)nc3cc(OC)ccc23)CN1C(=O)C(NC(=O)NC(C)(C)C(N)=O)C(C)(C)C)C(=O)O (stereo not shown) [compound 833] | 7.82 |
| C=CC1CC1(NC(=O)C1CC(Oc2cc(-c3ccccc3)nc3cc(OC)ccc23)CN1C(=O)C(Nc1cccc(C)c1)C(C)C)C(=O)O (stereo not shown) [compound 834] | 7.13 |
| C=CC1CC1(NC(=O)C1CC(Oc2cc(-c3ccccc3)nc3cc(OC)ccc23)CN1C(=O)C(NC(=O)NC(C)(C)CO)C(C)(C)C)C(=O)O (stereo not shown) [compound 835] | 8.15 |
| C=CC1CC1(NC(=O)C1CC(Oc2cc(-c3ccccc3)nc3cc(OC)ccc23)CN1C(=O)C(Nc1ccc([N+](=O)[O-])cc1)C(C)C)C(=O)O (stereo not shown) [compound 836] | 6.89 |
| C=CC1CC1(NC(=O)C1CC(Oc2cc(-c3ccccc3)nc3cc(OC)ccc23)CN1C(=O)C(Nc1ccc(Cl)cc1)C(C)C)C(=O)O (stereo not shown) [compound 837] | 7.01 |
| C=CC1CC1(NC(=O)C1CC(Oc2cc(-c3ccccc3)nc3cc(OC)ccc23)CN1C(=O)C(Nc1cccc(CO)c1)C(C)C)C(=O)O (stereo not shown) [compound 838] | 7.03 |
| C=CC1CC1(NC(=O)C1CC(Oc2cc(-c3ccccc3)nc3cc(OC)ccc23)CN1C(=O)C(Nc1ccc(C#N)cc1)C(C)C)C(=O)O (stereo not shown) [compound 839] | 7.00 |
| C=CC1CC1(NC(=O)C1CC(Oc2cc(-c3ccccc3)nc3cc(OC)ccc23)CN1C(=O)C(Nc1ccc(F)cc1)C(C)C)C(=O)O (stereo not shown) [compound 840] | 7.07 |
| C=CC1CC1(NC(=O)C1CC(Oc2cc(-c3ccccc3C)nc3cc(OC)ccc23)CN1C(=O)C(NC(=O)OC(C)(C)C)C(C)(C)C)C(=O)O (stereo not shown) [compound 841] | 6.62 |
| C=CC1CC1(NC(=O)C1CC(Oc2cc(-c3cccc(C)c3)nc3cc(OC)ccc23)CN1C(=O)C(NC(=O)OC(C)(C)C)C(C)(C)C)C(=O)O (stereo not shown) [compound 842] | 7.14 |
| C=CC1CC1(NC(=O)C1CC(Oc2cc(-c3ccc(C)cc3)nc3cc(OC)ccc23)CN1C(=O)C(NC(=O)OC(C)(C)C)C(C)(C)C)C(=O)O (stereo not shown) [compound 843] | 7.28 |
| C=CC1CC1(NC(=O)C1CC(Oc2cc(-c3ccc(OC)cc3)nc3cc(OC)ccc23)CN1C(=O)C(NC(=O)NC(C)(C)C)C(C)(C)C)C(=O)O (stereo not shown) [compound 844] | 8.22 |
| C=CC1CC1(NC(=O)C1CC(Oc2cc(-c3ccccc3)nc3cc(OC)ccc23)CN1C(=O)C(Nc1ccc(NC(C)=O)cc1)C(C)C)C(=O)O (stereo not shown) [compound 845] | 6.74 |
| C=CC1CC1(NC(=O)C1CC(Oc2cc(-c3ccccc3)nc3cc(OC)ccc23)CN1C(=O)C(Nc1ccc2c(c1)OCO2)C(C)C)C(=O)O (stereo not shown) [compound 846] | 6.98 |
| C=CC1CC1(NC(=O)C1CC(Oc2cc(-c3ccccc3)nc3cc(OC)ccc23)CN1C(=O)C(NC(=O)OC(C)(C)C)C1CCCCC1)C(=O)O (stereo not shown) [compound 847] | 7.43 |
| C=CC1CC1(NC(=O)C1CC(Oc2cc(-c3ccccc3)nc3cc(OC)ccc23)CN1C(=O)C(CC(C)C)NC(=O)OC(C)(C)C)C(=O)O (stereo not shown) [compound 848] | 7.03 |
| C=CC1CC1(NC(=O)C1CC(Oc2cc(-c3ccccc3)nc3cc(OC)ccc23)CN1C(=O)C(CC(C)(C)C)NC(=O)OC(C)(C)C)C(=O)O (stereo not shown) [compound 849] | 6.96 |
| C=CC1CC1(NC(=O)C1CC(Oc2cc(-c3ccccc3)nc3cc(OC)ccc23)CN1C(=O)C(NC(=O)OC(C)(C)C)C(C)OC(C)(C)C)C(=O)O (stereo not shown) [compound 850] | 7.20 |

| SMILES | pIC50 |
| --- | --- |
| C=CC1CC1(NC(=O)C1CC(Oc2cc(-c3ccccc3)nc3cc(OC)ccc23)CN1C(=O)C(NC(=O)OC(C)(C)C)C(C)OC)C(=O)O (stereo not shown) [compound 851] | 6.92 |
| C=CC1CC1(NC(=O)C1CC(Oc2cc(-c3ccccc3)nc3cc(OC)ccc23)CN1C(=O)C(NC(=O)OC(C)(C)C)C(C)OC)C(=O)O (stereo not shown) [compound 852] | 7.30 |
| C=CC1CC1(NC(=O)C1CC(Oc2cc(-c3ccccc3)nc3cc(OC)ccc23)CN1C(=O)C(NC(=O)OC(C)(C)C)C(C)OCc1ccccc1)C(=O)O (stereo not shown) [compound 853] | 6.77 |
| C=CC1CC1(NC(=O)C1CC(Oc2cc(-c3ccccc3)nc3cc(OC)ccc23)CN1C(=O)C(Nc1cccc(-c2ccccc2)c1)C(C)C)C(=O)O (stereo not shown) [compound 854] | 6.43 |
| C=CC1CC1(NC(=O)C1CC(Oc2cc(-c3ccccc3)nc3cc(OC)ccc23)CN1C(=O)C(Nc1cccc(CCO)c1)C(C)C)C(=O)O (stereo not shown) [compound 855] | 7.12 |
| C=CC1CC1(NC(=O)C1CC(Oc2cc(-c3ccccc3)nc3cc(OC)ccc23)CN1C(=O)C(Nc1ccc(CC#N)cc1)C(C)C)C(=O)O (stereo not shown) [compound 856] | 6.96 |
| C=CC1CC1(NC(=O)C1CC(Oc2cc(-c3ccccc3)nc3cc(OC)ccc23)CN1C(=O)C(NC(=O)NC(C)(C)COC)C(C)(C)C)C(=O)O (stereo not shown) [compound 857] | 7.96 |
| C=CC1CC1(NC(=O)C1CC(Oc2cc(-c3ccccc3)nc3cc(OC)ccc23)CN1C(=O)C(NC(=O)N(C)C(C)(C)C)C(C)(C)C)C(=O)O (stereo not shown) [compound 858] | 6.69 |
| C=CC1CC1(NC(=O)C1CC(Oc2cc(-c3ccccc3)nc3cc(OC)ccc23)CN1C(=O)C(NC1CCCCC1)C(C)C)C(=O)O (stereo not shown) [compound 859] | 6.08 |
| C=CC1CC1(NC(=O)C1CC(Oc2cc(-c3ccccc3)nc3cc(OC)ccc23)CN1C(=O)C(Nc1cccc(Oc2ccc(F)cc2)c1)C(C)C)C(=O)O (stereo not shown) [compound 860] | 6.62 |
| C=CC1CC1(NC(=O)C1CC(Oc2cc(-c3ccccc3)nc3cc(OC)ccc23)CN1C(=O)C(Nc1cccc(CC#N)c1)C(C)C)C(=O)O (stereo not shown) [compound 861] | 6.77 |
| C=CC1CC1(NC(=O)C1CC(Oc2cc(-c3ccccc3)nc3cc(OC)ccc23)CN1C(=O)C(Nc1cc(F)cc(F)c1)C(C)C)C(=O)O (stereo not shown) [compound 862] | 6.64 |
| C=CC1CC1(NC(=O)C1CC(Oc2cc(-c3ccccc3)nc3cc(OC)ccc23)CN1C(=O)C(Nc1ccc2ccccc2c1)C(C)C)C(=O)O (stereo not shown) [compound 863] | 6.52 |
| C=CC1CC1(NC(=O)C1CC(Oc2cc(-c3ccccc3)nc3cc(OC)ccc23)CN1C(=O)C(Nc1ccccc1F)C(C)C)C(=O)O (stereo not shown) [compound 864] | 6.35 |
| C=CC1CC1(NC(=O)C1CC(Oc2cc(-c3ccccc3)nc3cc(OC)ccc23)CN1C(=O)C(NC(=O)OC1CCOC1)C(C)(C)C)C(=O)O (stereo not shown) [compound 865] | 7.70 |
| C=CC1CC1(NC(=O)C1CC(Oc2cc(-c3ccccc3)nc3cc(OC)ccc23)CN1C(=O)C(NC(=O)OCC(C)(C)N)C(C)(C)C)C(=O)O (stereo not shown) [compound 866] | 6.70 |
| C=CC1CC1(NC(=O)C1CC(Oc2cc(-c3ccccc3)nc3cc(OC)ccc23)CN1C(=O)C(NC(=O)OC1CCOC1)C(C)(C)C)C(=O)O (stereo not shown) [compound 867] | 7.29 |
| C=CC1CC1(NC(=O)C1CC(Oc2cc(-c3ccccc3)nc3cc(OC)ccc23)CN1C(=O)C(NC(=O)OC1CCCCC1)C(C)(C)C)C(=O)O (stereo not shown) [compound 868] | 7.52 |
| C=CC1CC1(NC(=O)C1CC(Oc2cc(-c3ccccc3)nc3cc(OC)ccc23)CN1C(=O)C(NC(=O)OC1CCCC1)C(C)(C)C)C(=O)O (stereo not shown) [compound 869] | 7.85 |
| C=CC1CC1(NC(=O)C1CC(Oc2cc(-c3ccccc3)nc3cc(OC)ccc23)CN1C(=O)C(NC(=O)NC(C)(C)CC)C(C)(C)C)C(=O)O (stereo not shown) [compound 870] | 8.05 |
| C=CC1CC1(NC(=O)C1CC(Oc2cc(-c3ccccc3)nc3cc(OC)ccc23)CN1C(=O)C(NC(=O)NC(C)(CC)CC)C(C)(C)C)C(=O)O (stereo not shown) [compound 871] | 7.96 |
| C=CC1CC1(NC(=O)C1CC(Oc2cc(-c3ccccc3)nc3cc(OC)ccc23)CN1C(=O)C(NC(=O)NC(C)C(C)(C)C)C(C)(C)C)C(=O)O (stereo not shown) [compound 872] | 8.30 |
| C=CC1CC1(NC(=O)C1CC(Oc2cc(-c3ccccc3)nc3cc(OC)ccc23)CN1C(=O)C(NC(=O)NC(C)C(C)(C)C)C(C)(C)C)C(=O)O (stereo not shown) [compound 873] | 7.72 |

same assay, conditions: Table 9

| SMILES | pIC50 |
| --- | --- |
| C=CC1CC1(NC(=O)C1CC(Oc2cc(-c3ccccc3)nc3cc(OC)ccc23)CN1C(=O)C(NC(=O)C(CC(=O)O)C1CCCCC1)C(C)(C)C)C(=O)O (stereo not shown) [compound 903] | 8.30 |
| C=CC1CC1(NC(=O)C1CC(Oc2cc(-c3ccccc3)nc3cc(OC)ccc23)CN1C(=O)C(NC(=O)c1cccc(O)c1)C(C)(C)C)C(=O)O (stereo not shown) [compound 904] | 7.02 |
| C=CC1CC1(NC(=O)C1CC(Oc2cc(-c3ccccc3)nc3cc(OC)ccc23)CN1C(=O)C(NC(=O)OC1CCC1)C(C)(C)C)C(=O)O (stereo not shown) [compound 905] | 7.54 |
| C=CC1CC1(NC(=O)C1CC(Oc2cc(-c3ccccc3)nc3cc(OC)ccc23)CN1C(=O)C(NC(=O)NC(CC)C(C)(C)C)C(C)(C)C)C(=O)O (stereo not shown) [compound 906] | 7.85 |
| C=CC1CC1(NC(=O)C1CC(Oc2cc(-c3ccccc3)nc3cc(OC)ccc23)CN1C(=O)C(NC(=O)OC1CCSC1)C(C)(C)C)C(=O)O (stereo not shown) [compound 907] | 7.60 |
| C=CC1CC1(NC(=O)C1CC(Oc2cc(-c3ccccc3)nc3cc(OC)ccc23)CN1C(=O)C(NC(=O)c1ccccc1)C(C)(C)C)C(=O)O (stereo not shown) [compound 908] | 7.14 |
| C=CC1CC1(NC(=O)C1CC(Oc2cc(-c3ccccc3)nc3cc(OC)ccc23)CN1C(=O)C(NS(=O)(=O)c1ccccc1)C(C)(C)C)C(=O)O (stereo not shown) [compound 909] | 7.44 |
| C=CC1CC1(NC(=O)C1CC(Oc2cc(-c3ccccc3)nc3cc(OC)ccc23)CN1C(=O)C(NC(=O)OC(C)C(C)(C)C)C(C)(C)C)C(=O)O (stereo not shown) [compound 910] | 7.25 |
